Molecules are shown by their SMILES.

Consider 19 compounds from ChEMBL document CHEMBL1122963, “[3H]Batrachotoxinin A 20 alpha-benzoate binding to voltage-sensitive sodium channels: a rapid and quantitative assay for local anesthetic activity in a variety of drugs” (J Med Chem, 1985).

The target in assay [1] is T1, Sodium channel alpha subunits; brain (Types I, II, III) (Homo sapiens, UniProt P35498+Q99250+Q9NY46). The following applies: Cavia porcellus; Cerebral cortex; at 10 µM.
Assay [2] addresses T1, Sodium channel alpha subunits; brain (Types I, II, III). Nature of the assay: Inhibition of binding of Batrachotoxinin [3H]BTX-B to high affinity sites on voltage dependent sodium channels in a vesicular preparation from guinea pig cerebral cortex. The class given is tissue-based, Cavia porcellus.
Assay [3] has the same target. The following applies: Cavia porcellus; Cerebral cortex; at 100 µM.
The target is the same in assay [4]. The settings on record: Cavia porcellus; Cerebral cortex; at 10 µM. The source holds these as a separate data set.

T1 sequence (Q99250 whole entry, looked up, other chains not shown): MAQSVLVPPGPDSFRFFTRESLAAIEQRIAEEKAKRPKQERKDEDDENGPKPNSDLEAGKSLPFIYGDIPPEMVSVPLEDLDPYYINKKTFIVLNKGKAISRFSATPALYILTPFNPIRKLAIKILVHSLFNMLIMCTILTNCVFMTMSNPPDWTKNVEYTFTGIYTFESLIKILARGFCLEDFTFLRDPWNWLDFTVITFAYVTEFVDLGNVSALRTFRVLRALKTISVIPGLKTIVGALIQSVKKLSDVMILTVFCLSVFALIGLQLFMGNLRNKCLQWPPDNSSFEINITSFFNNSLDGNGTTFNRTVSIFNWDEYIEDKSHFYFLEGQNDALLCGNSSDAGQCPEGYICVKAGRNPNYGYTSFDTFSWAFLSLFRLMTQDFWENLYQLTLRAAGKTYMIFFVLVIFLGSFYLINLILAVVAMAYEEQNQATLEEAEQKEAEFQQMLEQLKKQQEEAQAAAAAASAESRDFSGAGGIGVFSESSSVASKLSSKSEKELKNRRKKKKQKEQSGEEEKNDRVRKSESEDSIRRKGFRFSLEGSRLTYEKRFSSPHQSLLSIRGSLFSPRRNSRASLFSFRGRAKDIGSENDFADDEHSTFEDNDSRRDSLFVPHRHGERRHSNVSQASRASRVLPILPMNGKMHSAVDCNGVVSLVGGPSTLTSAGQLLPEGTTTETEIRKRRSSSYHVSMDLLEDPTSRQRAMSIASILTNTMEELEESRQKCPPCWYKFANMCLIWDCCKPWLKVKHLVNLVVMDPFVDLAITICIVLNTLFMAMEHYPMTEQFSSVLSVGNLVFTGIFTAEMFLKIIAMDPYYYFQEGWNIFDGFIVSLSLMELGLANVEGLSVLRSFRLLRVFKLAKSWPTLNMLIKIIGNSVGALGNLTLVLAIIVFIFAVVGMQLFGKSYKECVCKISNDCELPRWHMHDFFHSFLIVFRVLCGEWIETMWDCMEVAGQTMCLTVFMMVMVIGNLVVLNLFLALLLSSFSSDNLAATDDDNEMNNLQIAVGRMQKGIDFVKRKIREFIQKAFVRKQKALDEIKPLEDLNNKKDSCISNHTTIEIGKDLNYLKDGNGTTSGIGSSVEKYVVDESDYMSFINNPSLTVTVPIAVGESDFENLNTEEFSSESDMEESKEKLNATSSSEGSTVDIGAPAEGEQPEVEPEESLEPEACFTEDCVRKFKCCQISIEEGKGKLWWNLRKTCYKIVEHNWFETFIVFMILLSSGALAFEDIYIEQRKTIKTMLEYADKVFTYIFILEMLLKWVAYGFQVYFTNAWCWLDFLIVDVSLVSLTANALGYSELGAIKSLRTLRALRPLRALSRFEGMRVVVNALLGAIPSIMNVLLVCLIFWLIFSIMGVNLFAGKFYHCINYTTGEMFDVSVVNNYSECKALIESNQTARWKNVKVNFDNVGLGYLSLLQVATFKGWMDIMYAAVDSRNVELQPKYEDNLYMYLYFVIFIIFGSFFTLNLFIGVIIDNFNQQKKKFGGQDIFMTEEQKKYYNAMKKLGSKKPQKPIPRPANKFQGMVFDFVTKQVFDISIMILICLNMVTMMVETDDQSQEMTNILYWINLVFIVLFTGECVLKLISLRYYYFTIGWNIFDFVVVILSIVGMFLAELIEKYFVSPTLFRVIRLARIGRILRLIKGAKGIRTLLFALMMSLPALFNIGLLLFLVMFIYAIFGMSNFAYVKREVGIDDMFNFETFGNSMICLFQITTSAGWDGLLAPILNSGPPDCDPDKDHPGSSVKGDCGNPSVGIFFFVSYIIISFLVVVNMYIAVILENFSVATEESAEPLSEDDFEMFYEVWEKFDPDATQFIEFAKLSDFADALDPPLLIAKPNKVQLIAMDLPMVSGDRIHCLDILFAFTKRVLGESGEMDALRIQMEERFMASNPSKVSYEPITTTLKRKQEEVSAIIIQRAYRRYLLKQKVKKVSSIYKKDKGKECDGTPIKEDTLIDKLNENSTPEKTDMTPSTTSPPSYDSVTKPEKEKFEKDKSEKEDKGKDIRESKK
T1 sequence (Q9NY46 whole entry, looked up, other chains not shown): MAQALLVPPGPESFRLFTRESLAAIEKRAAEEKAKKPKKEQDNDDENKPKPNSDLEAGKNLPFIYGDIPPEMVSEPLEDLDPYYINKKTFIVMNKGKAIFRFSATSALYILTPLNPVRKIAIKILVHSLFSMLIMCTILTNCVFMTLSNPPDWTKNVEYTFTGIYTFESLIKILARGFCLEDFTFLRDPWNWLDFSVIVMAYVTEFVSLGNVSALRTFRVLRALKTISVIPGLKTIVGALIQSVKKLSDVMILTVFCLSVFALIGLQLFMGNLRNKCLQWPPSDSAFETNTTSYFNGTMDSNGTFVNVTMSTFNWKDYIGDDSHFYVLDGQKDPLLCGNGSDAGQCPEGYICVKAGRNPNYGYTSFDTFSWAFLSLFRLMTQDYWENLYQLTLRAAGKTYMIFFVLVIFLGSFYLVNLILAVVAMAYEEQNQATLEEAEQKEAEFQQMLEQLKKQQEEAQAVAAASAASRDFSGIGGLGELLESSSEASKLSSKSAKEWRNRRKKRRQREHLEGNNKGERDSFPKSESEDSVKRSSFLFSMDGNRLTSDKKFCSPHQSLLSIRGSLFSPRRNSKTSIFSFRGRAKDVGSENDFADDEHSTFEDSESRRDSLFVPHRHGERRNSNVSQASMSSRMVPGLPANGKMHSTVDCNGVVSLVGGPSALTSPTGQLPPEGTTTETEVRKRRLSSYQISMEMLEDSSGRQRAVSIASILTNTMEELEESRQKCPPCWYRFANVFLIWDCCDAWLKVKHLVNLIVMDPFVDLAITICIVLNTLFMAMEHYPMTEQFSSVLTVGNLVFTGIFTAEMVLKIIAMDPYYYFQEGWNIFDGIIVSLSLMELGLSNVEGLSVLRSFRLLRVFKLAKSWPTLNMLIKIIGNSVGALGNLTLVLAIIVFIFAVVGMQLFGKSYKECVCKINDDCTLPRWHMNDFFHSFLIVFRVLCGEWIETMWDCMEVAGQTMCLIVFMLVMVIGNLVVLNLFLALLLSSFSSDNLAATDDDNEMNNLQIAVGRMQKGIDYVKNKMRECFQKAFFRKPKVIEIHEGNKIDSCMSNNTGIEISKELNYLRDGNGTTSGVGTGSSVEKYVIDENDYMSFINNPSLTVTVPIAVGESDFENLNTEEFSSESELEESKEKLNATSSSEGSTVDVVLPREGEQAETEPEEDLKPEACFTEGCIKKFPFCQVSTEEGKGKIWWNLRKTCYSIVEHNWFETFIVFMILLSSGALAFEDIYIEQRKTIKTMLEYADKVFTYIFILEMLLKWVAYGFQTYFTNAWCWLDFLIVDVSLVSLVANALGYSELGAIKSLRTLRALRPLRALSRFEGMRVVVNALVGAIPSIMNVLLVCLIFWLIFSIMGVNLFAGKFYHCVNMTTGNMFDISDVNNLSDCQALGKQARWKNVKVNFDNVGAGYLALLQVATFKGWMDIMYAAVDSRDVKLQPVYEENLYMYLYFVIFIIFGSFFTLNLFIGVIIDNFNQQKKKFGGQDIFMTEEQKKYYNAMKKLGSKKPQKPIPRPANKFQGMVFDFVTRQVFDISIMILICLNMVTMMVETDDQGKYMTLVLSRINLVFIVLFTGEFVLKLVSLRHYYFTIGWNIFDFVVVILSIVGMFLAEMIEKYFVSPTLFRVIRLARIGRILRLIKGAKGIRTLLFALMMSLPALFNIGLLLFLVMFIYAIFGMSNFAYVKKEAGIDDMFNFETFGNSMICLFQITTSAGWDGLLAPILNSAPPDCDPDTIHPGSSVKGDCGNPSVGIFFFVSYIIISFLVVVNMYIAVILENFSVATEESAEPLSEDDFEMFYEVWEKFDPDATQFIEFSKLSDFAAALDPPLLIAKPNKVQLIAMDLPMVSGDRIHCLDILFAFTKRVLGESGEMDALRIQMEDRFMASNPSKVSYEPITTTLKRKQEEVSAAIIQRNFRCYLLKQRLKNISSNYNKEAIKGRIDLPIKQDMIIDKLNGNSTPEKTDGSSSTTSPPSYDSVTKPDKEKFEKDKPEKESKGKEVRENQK

As for `CCOC(=O)c1ccc(N)cc1` [BENZOCAINE], the inhibition (in general, how much of the control response was suppressed) came out at 5.1% in assay [1] and 0% in assay [3]. Besides, in assay [2], the IC50 (as a rule, the concentration that gives 50% inhibition) came out at 910 µM.
Turning to `C=C[C@@]1(C)CC(=O)[C@]2(O)[C@@]3(C)[C@@H](O)CCC(C)(C)[C@@H]3[C@H](O)[C@H](OC(C)=O)[C@@]2(C)O1` [COLFORSIN], in assay [2], the IC50 was determined as 60 µM. This compound yielded an inhibition in assay [3] of 62.8%.
For `CCCCOc1ccc(OCCCN2CCOCC2)cc1` [PRAMOXINE], the inhibition in assay [1] came to 29.7%; in assay [3], 86.3%. The compound further showed an IC50 in assay [2] of 21.2 µM.
For the compound `COC(=O)[C@H]1[C@@H](OC(=O)c2ccccc2)C[C@@H]2CC[C@H]1N2C` [COCAINE], the inhibition in assay [1] was determined as 19.5%; in assay [3], 63.2%. In assay [2], this compound showed an IC50 of 49 µM.
`c1ccc2c(c1)OCC(CN1CCCCC1)O2` (stereo unspecified) [PIPEROXAN] gave an IC50 in assay [2] of 61 µM. The compound further yielded an inhibition in assay [3] of 58.8%.
In the case of `COc1ccc(CN(CCN(C)C)c2nccs2)cc1` [ZOLAMINE], the inhibition amounted to 35.9% in assay [1] and 82.4% in assay [3]. The compound also displayed an IC50 in assay [2] of 19.2 µM.
Regarding `CC(C)CNCCOC(=O)c1ccc(N)cc1` [BUTETHAMINE], the inhibition in assay [1] is 12.3%; in assay [3], 63.2%. Also, the IC50 in assay [2] turned out to be 55 µM.
For `COc1cc2c(cc1OC)C1CC(=O)C(CC(C)C)CN1CC2` (stereo unspecified) [TETRABENAZINE] the same measures were 7%, 55% and 85 µM.
In turn, `C(=C\c1ccccc1)/CN1CCN(C(c2ccccc2)c2ccccc2)CC1` [CINNARIZINE] yielded an inhibition in assay [4] of 94.6%.
Turning to `CN1C(=O)CN=C(c2ccccc2)c2cc(Cl)ccc21`, the figures for the inhibition in assay [1] and in assay [3] were 15.2% and 45.4%, respectively.
For `CNC1=Nc2ccc(Cl)cc2C(c2ccccc2)=[N+]([O-])C1`, in that order: 4.4% and 35%.
With `Nc1ccncc1`, the inhibition in assay [1] is 1.2%; in assay [3], 3.8%.
`CCN(CC)CCNC(=O)c1ccc(N=[N+]=[N-])cc1`: the inhibition in assay [1] amounted to 13.4%; in assay [3], 56.1%. In assay [2], this compound displayed an IC50 of 65 µM.
For the compound `CCN(CC)CCCCCCCCOC(=O)c1cc(C)c(C)c(C)c1`, the inhibition in assay [1] is 3.4%; in assay [3] it was 21.6%.
As for `COc1ccc2c(c1)c(CC(=O)O)c(C)n2C(=O)c1ccc(Cl)cc1`, the inhibition is 3.3% in assay [1] and 11.2% in assay [3].
For `COc1ccc(Cc2nccc3cc(OC)c(OC)cc23)cc1OC`, in that order: 11% and 56%.
Take `CCCNC(C)C(=O)Nc1ccccc1C` (stereo unspecified) [PRILOCAINE]: the figures for the inhibition in assay [1] and in assay [3] were 14.2% and 58.5%, respectively. In assay [2], this compound registered an IC50 of 54 µM.
The compound `N=C1CCCCCCCCCCCN1C1CCCC1c1ccccc1` (stereo unspecified) registered an IC50 in assay [2] of 0.8 µM. In assay [3], this compound returned an inhibition of 100%.
As for `CC1CCCC[N+]1(C)CCCOC(=O)c1ccccc1.[I-]` (stereo unspecified), the inhibition in assay [1] was 9.6%; in assay [3] it was 31.4%. The same compound showed an IC50 in assay [2] of 360 µM.
